These are literature values, as cited in patent US20250295594A1, “ENTERAL SUSTAINED-RELEASE SUGAR ALCOHOL ADDITIVE AND PREPARATION METHOD AND APPLICATION THEREOF” (ZHEJIANG HUAKANG PHARMACEUTICAL CO., LTD., priority 2020, published 2025).

The conditions of this data set: existing experimental data, unformulated sugar / sugar alcohol.

`O=C[C@H](O)[C@@H](O)[C@@H](O)CO` [arabinose, L-arabinose]: the “absorption rate of the small intestine” value is listed as 70%.
For `OC[C@@H](O)[C@H](O)[C@@H](O)CO` [xylitol], the “absorption rate of the small intestine” value is 60%.
